Measurements from US20100047907A1, “METHODS OF TRANSPORTING EPITHELIAL CELL MONOLAYERS” (Absorption System Group LLC, priority 2008, published 2010).
One block for each molecule: values may come before it.

How the values were obtained:
P-gp (PGP) = P-gp (PGP) (Homo sapiens, UniProt P08183); experiment: in vitro; conditions: Caco-2, pH 7.4, Pgp transport, Papp B->A
PGP [1] = target: T1, PGP (Homo sapiens, UniProt P08183); experiment: in vitro; conditions: Caco-2, pH 7.4, Pgp transport
PGP [2] = target: T1, PGP; experiment: Bidirectional digoxin Pgp transport across Caco-2 monolayers; conditions: Caco-2, pH 7.4
P-glycoprotein (PGP) [3] = target: T2, P-glycoprotein (PGP) (Homo sapiens, UniProt P08183); experiment: Bidirectional digoxin Pgp transport across C2BBe1 monolayers; conditions: Caco-2, pH 7.4
[4] = system: human P-glycoprotein (PGP); experiment: Bidirectional digoxin Pgp transport across MDR-MDCK monolayers; conditions: dog, MDCK-MDR1, pH 7.4, Pgp transport; for Papp A→B at 2 h, 10 µM / Papp B→A at 2 h, 10 µM: assayed day 12
P-gp [5] = experiment: as above; conditions: human, MDCK-MDR1, pH 7.4, Pgp transport
P-gp [6] = experiment: Bidirectional digoxin Pgp transport across MDCK monolayers; conditions: dog, MDCK-MDR1, pH 7.4, Pgp transport
P-glycoprotein (PGP) [7] = target: T2, P-glycoprotein (PGP); experiment: in vitro; conditions: Caco-2, pH 7.4, Pgp transport
in vitro = conditions: human, Caco-2, pH 7.4, Passive diffusion
Caco-2 cell monolayers = experiment: Sodium butyrate supplementation of medium of Caco-2 monolayers, 7-day culture procedure, simulated transport; format: cell-based, human
Method: Caco-2 cells were used to assess whether cells grown using the 7-day culture procure were likely to yield intact cell monolayers following shipment. To shorten the period required for cell monolayer formation the seeding density for each Transwell® insert was increased to 240,000 cells per cm^2 (rather than 60,000 cells/cm^2). Once plated, the cells were incubated overnight at 37° C. with 0.5 mL of medium (90% Dulbecco's Modified Eagle Medium supplemented with 10% fetal bovine serum) in the apical chamber and 1.5 mL of medium in the basolateral chamber to allow for attachment to the Transwell®. Adherent cells were provided with fresh cell culture medium for the next two days. The cells were then left on a laboratory bench, at room temperature, overnight to simulate transport conditions. In order to simulate receipt of transported cells, the next day the Transwell® inserts were removed from tissue culture plates containing 0.75% agarose medium and moved to a new plate containing fresh tissue culture medium. The cell monolayers were then incubated for 3 or 6 days under normal growth conditions before they were tested for membrane integrity and permeability. […]

[8] = Table 5 control, not shipped, assayed 7 D
[9] = Table 6 shipped at 5 D, 0.5% agarose medium basolateral only, assayed 10 D
[10] = Table 7 shipped at day 6, 0.5% agarose medium basolateral only
[11] = shipped, 0.5% agarose medium apical only, Table 5 lower block c1, assayed 7 D
[12] = shipped, 0.5% agarose medium apical only, Table 5 lower block c2, assayed 7 D
[13] = shipped, 0.5% agarose medium apical only, Table 5 upper block c1, assayed 7 D
[14] = shipped, 0.5% agarose medium apical only, Table 5 upper block c2, assayed 7 D
[15] = shipped, 0.5% agarose medium apical only, Table 5 upper block c4, assayed 7 D
[16] = shipped, 0.5% agarose medium basolateral only, assayed 7 D
[17] = Table 10 control, assayed day 12
[18] = Table 13 MDR1-MDCK control, 7 d in culture
[19] = Table 13 MDR1-MDCK shipped overnight by air, 0.75% agarose medium basolateral only, 10 d in culture
[20] = air cargo shipped (three days in transit), 0.75% agarose media basolateral only, assayed day 12
[21] = Table 9 control, assayed day 10
[22] = Table 9 shipped, 0.75% agarose media basolateral only, assayed day 10
[23] = Table 12 control, 7 d in culture
[24] = Table 12 shipped overnight by air, 0.75% agarose medium basolateral only, 9 d in culture

T1 sequence (P08183 whole entry): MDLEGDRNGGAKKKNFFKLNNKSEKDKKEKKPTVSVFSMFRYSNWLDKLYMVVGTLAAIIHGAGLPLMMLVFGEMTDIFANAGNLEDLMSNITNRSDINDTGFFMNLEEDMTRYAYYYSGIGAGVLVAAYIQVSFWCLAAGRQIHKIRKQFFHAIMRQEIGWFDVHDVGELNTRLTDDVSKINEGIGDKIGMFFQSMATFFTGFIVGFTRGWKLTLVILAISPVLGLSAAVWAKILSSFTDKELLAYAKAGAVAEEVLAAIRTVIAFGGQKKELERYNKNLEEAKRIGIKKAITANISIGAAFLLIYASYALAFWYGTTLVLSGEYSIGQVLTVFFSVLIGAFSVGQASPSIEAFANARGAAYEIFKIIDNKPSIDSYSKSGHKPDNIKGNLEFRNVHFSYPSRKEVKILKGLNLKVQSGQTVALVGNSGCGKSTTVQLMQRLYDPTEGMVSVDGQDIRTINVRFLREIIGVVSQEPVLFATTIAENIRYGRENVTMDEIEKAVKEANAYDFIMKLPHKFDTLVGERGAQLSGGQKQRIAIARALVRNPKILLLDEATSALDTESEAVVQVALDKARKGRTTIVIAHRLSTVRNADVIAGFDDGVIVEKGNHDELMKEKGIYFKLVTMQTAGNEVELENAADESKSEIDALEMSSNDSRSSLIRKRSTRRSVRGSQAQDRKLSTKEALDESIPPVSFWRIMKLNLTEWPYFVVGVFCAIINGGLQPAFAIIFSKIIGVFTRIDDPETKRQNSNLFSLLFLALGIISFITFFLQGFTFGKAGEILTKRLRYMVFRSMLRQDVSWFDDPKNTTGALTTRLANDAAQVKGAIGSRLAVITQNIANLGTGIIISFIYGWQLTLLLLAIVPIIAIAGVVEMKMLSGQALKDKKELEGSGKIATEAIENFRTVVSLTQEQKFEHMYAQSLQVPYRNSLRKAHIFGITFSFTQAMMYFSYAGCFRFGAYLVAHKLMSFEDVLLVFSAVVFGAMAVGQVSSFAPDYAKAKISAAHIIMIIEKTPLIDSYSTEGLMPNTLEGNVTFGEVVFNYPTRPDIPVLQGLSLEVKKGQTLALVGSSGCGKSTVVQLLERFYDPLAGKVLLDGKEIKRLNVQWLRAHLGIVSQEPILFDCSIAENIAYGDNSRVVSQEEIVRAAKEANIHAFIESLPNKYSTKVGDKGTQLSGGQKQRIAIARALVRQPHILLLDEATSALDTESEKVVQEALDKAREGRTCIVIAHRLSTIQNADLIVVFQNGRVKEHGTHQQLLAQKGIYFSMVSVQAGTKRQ
T2 sequence (P08183 whole entry): as above
Chain of P-gp (PGP) (P08183 whole entry): as above

SMILES: C[C@H]1O[C@@H](O[C@H]2[C@@H](O)C[C@H](O[C@H]3[C@@H](O)C[C@H](O[C@H]4CC[C@@]5(C)[C@H](CC[C@@H]6[C@@H]5C[C@@H](O)[C@]5(C)[C@@H](C7=CC(=O)OC7)CC[C@]65O)C4)O[C@@H]3C)O[C@@H]2C)C[C@H](O)[C@@H]1O [Digoxin, digoxin]
- Papp B→A at 120 min, 10 µM (P-gp (PGP)): 21.9 ×10⁻⁶ cm/s
- Papp A→B at 2 h, 10 µM (PGP [1]; Papp A->B): 1.13 ×10⁻⁶ cm/s
- Papp B→A at 120 min, 10 µM (PGP [1]; Papp B->A): 21.6 ×10⁻⁶ cm/s
- Papp B→A at 2 h, 10 µM (PGP [1]; Papp B->A): 15.2 ×10⁻⁶ cm/s
- Papp A→B at 120 min, 10 µM (PGP [2]): 0.66 ×10⁻⁶ cm/s
- Papp B→A at 2 h, 10 µM (P-glycoprotein (PGP) [3]): 5.67 ×10⁻⁶ cm/s
- Papp A→B at 120 min, 10 µM [4, 8]: 0.1 ×10⁻⁶ cm/s
- Papp A→B at 120 min, 10 µM ([4]; Table 6 control, assayed 10 D): 0.15 ×10⁻⁶ cm/s
- Papp A→B at 120 min, 10 µM [4, 9]: 0.21 ×10⁻⁶ cm/s
- Papp A→B at 2 h, 10 µM ([4]; Table 7 control): 0.15 ×10⁻⁶ cm/s
- Papp A→B at 2 h, 10 µM [4, 10]: 0.09 ×10⁻⁶ cm/s
- Papp A→B at 120 min, 10 µM [4, 11]: 0.18 ×10⁻⁶ cm/s
- Papp A→B at 120 min, 10 µM [4, 12]: 0.09 ×10⁻⁶ cm/s
- Papp A→B at 120 min, 10 µM [4, 13]: 0.11 ×10⁻⁶ cm/s
- Papp A→B at 120 min, 10 µM [4, 14]: 0.06 ×10⁻⁶ cm/s
- Papp A→B at 120 min, 10 µM [4, 15]: 0.07 ×10⁻⁶ cm/s
- Papp A→B at 120 min, 10 µM [4, 16]: 0.06 ×10⁻⁶ cm/s
- Papp B→A at 120 min, 10 µM [4, 8]: 6.7 ×10⁻⁶ cm/s
- Papp B→A at 120 min, 10 µM ([4]; Table 6 control, assayed 10 D): 10.8 ×10⁻⁶ cm/s
- Papp B→A at 120 min, 10 µM [4, 9]: 9.14 ×10⁻⁶ cm/s
- Papp B→A at 2 h, 10 µM ([4]; Table 7 control): 6.37 ×10⁻⁶ cm/s
- Papp B→A at 2 h, 10 µM [4, 10]: 6.4 ×10⁻⁶ cm/s
- Papp B→A at 120 min, 10 µM [4, 11]: 7.05 ×10⁻⁶ cm/s
- Papp B→A at 120 min, 10 µM [4, 12]: 8.27 ×10⁻⁶ cm/s
- Papp B→A at 120 min, 10 µM [4, 13]: 5.24 ×10⁻⁶ cm/s
- Papp B→A at 120 min, 10 µM [4, 14]: 6.19 ×10⁻⁶ cm/s
- Papp B→A at 120 min, 10 µM ([4]; shipped, 0.5% agarose medium apical only, Table 5 upper block c3, assayed 7 D): 4.65 ×10⁻⁶ cm/s
- Papp B→A at 120 min, 10 µM [4, 15]: 6.39 ×10⁻⁶ cm/s
- Papp B→A at 120 min, 10 µM [4, 16]: 6.09 ×10⁻⁶ cm/s
- Papp A→B at 2 h, 10 µM (P-gp [5]; [17]): 0.04 ×10⁻⁶ cm/s
- Papp A→B at 2 h, 10 µM (P-gp [5]; [18]): 0.02 ×10⁻⁶ cm/s
- Papp A→B at 2 h, 10 µM (P-gp [5]; [19]): 0.09 ×10⁻⁶ cm/s
- Papp A→B at 2 h, 10 µM (P-gp [5]; [20]): 0.07 ×10⁻⁶ cm/s
- Papp B→A at 2 h, 10 µM (P-gp [5]; [17]): 10.9 ×10⁻⁶ cm/s
- Papp B→A at 2 h, 10 µM (P-gp [5]; [18]): 12.6 ×10⁻⁶ cm/s
- Papp B→A at 2 h, 10 µM (P-gp [5]; [19]): 20.1 ×10⁻⁶ cm/s
- Papp B→A at 2 h, 10 µM (P-gp [5]; [20]): 13.1 ×10⁻⁶ cm/s
- Papp A→B at 2 h, 10 µM (P-gp [6]; [21]): 0.2 ×10⁻⁶ cm/s
- Papp A→B at 2 h, 10 µM (P-gp [6]; [22]): 0.04 ×10⁻⁶ cm/s
- Papp A→B at 2 h, 10 µM (P-gp [6]; [23]): 0.12 ×10⁻⁶ cm/s
- Papp A→B at 2 h, 10 µM (P-gp [6]; [24]): 0.16 ×10⁻⁶ cm/s
- Papp B→A at 2 h, 10 µM (P-gp [6]; [21]): 0.94 ×10⁻⁶ cm/s
- Papp B→A at 2 h, 10 µM (P-gp [6]; [22]): 3.83 ×10⁻⁶ cm/s
- Papp B→A at 2 h, 10 µM (P-gp [6]; [23]): 6.92 ×10⁻⁶ cm/s
- Papp B→A at 2 h, 10 µM (P-gp [6]; [24]): 7.44 ×10⁻⁶ cm/s
- Papp B→A at 2 h, 10 µM (P-glycoprotein (PGP) [7]): 6.86 ×10⁻⁶ cm/s

- Papp A→B at 2 h (in vitro): 14.2 ×10⁻⁶ cm/s
SMILES: CC(C)NCC(O)COc1cccc2[nH]ccc12 (stereo not shown) [Pindolol, pindolol]

SMILES: CCCC(=O)[O-].[Na+] [sodium butyrate]
- effect on cell monolayer integrity and permeability following transport (Caco-2 cell monolayers; 4 mM in medium for three days prior to simulated transport, not following transport): adversely affects monolayer integrity and permeability following transport
- effect on cell monolayer integrity or permeability (Caco-2 cell monolayers; added to tissue culture medium following simulated transport, not prior to transport): does not disrupt cell monolayer integrity or permeability
